Tests used:
Carboplatin = compound: C1CC(C1)(C(=O)[O-])C(=O)[O-].N.N.[Pt+2] [Carboplatin]; settings: max 10 µM
In short: (§1)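 Following 24 hours at 37°C and 5% CO2, cancer cell lines in 1536-well plates with 7.5 μl DMEM/F12 or RPMI and 10% FBS were dosed for 72 hours, final DMSO typically being 0.2%. CellTiter-Glo 2.0 luminescence, scaled between blank-well and DMSO-well means, gave the viability readout. Dose responses were fitted to a two-parameter logistic curve with a non-linear mixed effects model, and the single-agent IC50 was derived from this fit.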

AZD5363 = compound: C1CN(CCC1(C(=O)N[C@@H](CCO)C2=CC=C(C=C2)Cl)N)C3=NC=NC4=C3C=CN4 [AZD5363]; settings: max 10 µM
In short: as §1

AZD1775 = compound: C=CCn1c(=O)c2cnc(Nc3ccc(N4CCN(C)CC4)cc3)nc2n1-c1cccc(C(C)(C)O)n1 [AZD1775]; settings: max 3 µM
In short: as §1

Trametinib = compound: CC(=O)Nc1cccc(-n2c(=O)n(C3CC3)c(=O)c3c(Nc4ccc(I)cc4F)n(C)c(=O)c(C)c32)c1 [Trametinib]; settings: max 1 µM
In short: as §1

Paclitaxel = compound: CC(=O)O[C@H]1C(=O)[C@@]2(C)[C@H]([C@H](OC(=O)c3ccccc3)[C@]3(O)C[C@H](OC(=O)[C@H](O)[C@@H](NC(=O)c4ccccc4)c4ccccc4)C(C)=C1C3(C)C)[C@]1(OC(C)=O)CO[C@@H]1C[C@@H]2O [Paclitaxel]; settings: max 3 µM
In short: as §1

Palbociclib = compound: CC(=O)c1c(C)c2cnc(Nc3ccc(N4CCNCC4)cn3)nc2n(C2CCCC2)c1=O [Palbociclib]; settings: max 10 µM
In short: as §1

AZD1390 = compound: CC(C)n1c(=O)n(C)c2cnc3cc(F)c(-c4ccc(OCCCN5CCCCC5)nc4)cc3c21 [AZD1390]; settings: max 0.3 µM
In short: as §1

Venetoclax = compound: CC1(C)CCC(CN2CCN(c3ccc(C(=O)NS(=O)(=O)c4ccc(NCC5CCOCC5)c([N+](=O)[O-])c4)c(Oc4cnc5[nH]ccc5c4)c3)CC2)=C(c2ccc(Cl)cc2)C1 [Venetoclax]; settings: max 1 µM
In short: as §1

Dasatinib = compound: CC1=C(C(=CC=C1)Cl)NC(=O)C2=CN=C(S2)NC3=CC(=NC(=N3)C)N4CCN(CC4)CCO [Dasatinib]; settings: max 2 µM
In short: as §1

SG3199 = compound: CC1=CN2[C@@H](C1)C=NC3=CC(=C(C=C3C2=O)OC)OCCCCCOC4=C(C=C5C(=C4)N=C[C@@H]6CC(=CN6C5=O)C)OC [SG3199]; settings: max 0.001 µM
In short: as §1

AZD2811 = compound: CCN(CCO)CCCOc1ccc2c(Nc3cc(CC(=O)Nc4cccc(F)c4)[nH]n3)ncnc2c1 [AZD2811]; settings: max 1 µM
In short: as §1

SN-38 = compound: CCc1c2c(nc3ccc(O)cc13)-c1cc3c(c(=O)n1C2)COC(=O)[C@]3(O)CC [SN-38]; settings: max 0.3 µM
In short: as §1

AZD0156 = compound: CN(C)CCCOc1ccc(-c2ccc3ncc4c(c3c2)n(C2CCOCC2)c(=O)n4C)cn1 [AZD0156]; settings: max 3 µM
In short: as §1

AZD4320 = compound: CN(CC[C@H](CSC1=CC=CC=C1)NC2=C(C=C(C=C2)S(=O)(=O)NC(=O)C3=CC=C(C=C3)N4CCC(CC4)[C@H](C5=CC=CC=C5C6=CC=C(C=C6)Cl)O)S(=O)(=O)C(F)(F)F)CCO [AZD4320]; settings: max 1 µM
In short: as §1

Alisertib = compound: COc1cc(Nc2ncc3c(n2)-c2ccc(Cl)cc2C(c2c(F)cccc2OC)=NC3)ccc1C(=O)O [Alisertib]; settings: max 10 µM
In short: as §1

Etoposide = compound: COc1cc([C@@H]2c3cc4c(cc3[C@@H](O[C@@H]3O[C@@H]5CO[C@@H](C)O[C@H]5[C@H](O)[C@H]3O)[C@H]3COC(=O)[C@H]23)OCO4)cc(OC)c1O [Etoposide]; settings: max 10 µM
In short: as §1

Gefitinib = compound: COc1cc2ncnc(Nc3ccc(F)c(Cl)c3)c2cc1OCCCN1CCOCC1 [Gefitinib]; settings: max 10 µM
In short: as §1

Prexasertib = compound: COc1cccc(OCCCN)c1-c1cc(Nc2cnc(C#N)cn2)n[nH]1 [Prexasertib]; settings: max 1 µM
In short: as §1

Doxorubicin = compound: COc1cccc2c1C(=O)c1c(O)c3c(c(O)c1C2=O)C[C@@](O)(C(=O)CO)C[C@@H]3O[C@H]1C[C@H](N)[C@H](O)[C@H](C)O1 [Doxorubicin]; settings: max 1 µM
In short: as §1

AZD5153 = compound: COc1nnc2ccc(N3CCC(c4ccc(OCCN5CCN(C)C(=O)[C@H]5C)cc4)CC3)nn12 [AZD5153]; settings: max 1 µM
In short: as §1

Lapatinib = compound: CS(=O)(=O)CCNCc1ccc(-c2ccc3ncnc(Nc4ccc(OCc5cccc(F)c5)c(Cl)c4)c3c2)o1 [Lapatinib]; settings: max 10 µM
In short: as §1

AZD8186 = compound: C[C@@H](Nc1cc(F)cc(F)c1)c1cc(C(=O)N(C)C)cc2c(=O)cc(N3CCOCC3)oc12 [AZD8186]; settings: max 10 µM
In short: as §1

Crizotinib = compound: C[C@@H](Oc1cc(-c2cnn(C3CCNCC3)c2)cnc1N)c1c(Cl)ccc(F)c1Cl [Crizotinib]; settings: max 10 µM
In short: as §1

Savolitinib = compound: C[C@@H](c1ccc2nccn2c1)n1nnc2ncc(-c3cnn(C)c3)nc21 [Savolitinib]; settings: max 1 µM
In short: as §1

AZD6738 = compound: C[C@@H]1COCCN1C2=NC(=NC(=C2)C3(CC3)[S@](=N)(=O)C)C4=C5C=CNC5=NC=C4 [AZD6738]; settings: max 10 µM
In short: as §1

AZD5991 = compound: Cc1c2c(nn1C)CSCc1cc(n(C)n1)CSc1cc(c3ccccc3c1)OCCCc1c(C(=O)O)n(C)c3c-2c(Cl)ccc13 [AZD5991]; settings: max 1 µM
In short: as §1

AZD7648 = compound: Cc1cc2ncnn2cc1Nc1ncc2c(n1)n(C1CCOCC1)c(=O)n2C [AZD7648]; settings: max 10 µM
In short: as §1

Taselisib = compound: Cc1nc(-c2cn3c(n2)-c2ccc(-c4cnn(C(C)(C)C(N)=O)c4)cc2OCC3)n(C(C)C)n1 [Taselisib]; settings: max 10 µM
In short: as §1

Selumetinib = compound: Cn1cnc2c(F)c(Nc3ccc(Br)cc3Cl)c(C(=O)NOCCO)cc21 [Selumetinib]; settings: max 10 µM
In short: as §1

SRA737 = compound: N#Cc1cnc(Nc2cc(NC[C@H]3CNCCO3)c(C(F)(F)F)cn2)cn1 [SRA737]; settings: max 10 µM
In short: as §1

MK-2206 = compound: NC1(c2ccc(-c3nc4ccn5c(=O)[nH]nc5c4cc3-c3ccccc3)cc2)CCC1 [MK-2206]; settings: max 10 µM
In short: as §1

Gemcitabine = compound: Nc1ccn([C@@H]2O[C@H](CO)[C@@H](O)C2(F)F)c(=O)n1 [Gemcitabine]; settings: max 0.3 µM
In short: as §1

[1] = compound: O=C(Nc1ccc2[nH]nc(-c3ccncc3)c2c1)[C@@H]1CCN(CC(=O)N2CCN(c3ccc(-c4ncccn4)cc3)CC2)C1; settings: max 5 µM
In short: as §1

Olaparib = compound: O=C(c1cc(Cc2n[nH]c(=O)c3ccccc23)ccc1F)N1CCN(C(=O)C2CC2)CC1 [Olaparib]; settings: max 10 µM
In short: as §1

5-Fluorouracil = compound: O=c1[nH]cc(F)c(=O)[nH]1 [5-Fluorouracil]; settings: max 20 µM
In short: as §1

SW1710 (Bladder Carcinoma) was tested, and the “IC50, cell viability 72 h” value (Carboplatin) was > 10 µM, the “IC50, cell viability 72 h” value (AZD5363) was > 10 µM and the “IC50, cell viability 72 h” value (AZD1775) was > 3000 nM. The “IC50, cell viability 72 h” value (Trametinib) was > 1000 nM, the “IC50, cell viability 72 h” value (Paclitaxel) was 15.1 nM and the “IC50, cell viability 72 h” value (Palbociclib) was > 10 µM. For the same cell line, the “IC50, cell viability 72 h” value (AZD1390) was > 300 nM, the “IC50, cell viability 72 h” value (Venetoclax) was > 1000 nM and the “IC50, cell viability 72 h” value (Dasatinib) was 190 nM. The “IC50, cell viability 72 h” value (SG3199) was > 1 nM, the “IC50, cell viability 72 h” value (AZD2811) was > 1000 nM and the “IC50, cell viability 72 h” value (SN-38) was > 300 nM. For the same cell line, the “IC50, cell viability 72 h” value (AZD0156) was > 3000 nM, the “IC50, cell viability 72 h” value (AZD4320) was > 1000 nM and the “IC50, cell viability 72 h” value (Alisertib) was > 10 µM. For the same cell line, the “IC50, cell viability 72 h” value (Etoposide) was > 10 µM, the “IC50, cell viability 72 h” value (Gefitinib) was > 10 µM and the “IC50, cell viability 72 h” value (Prexasertib) was 86.4 nM. For the same cell line, the “IC50, cell viability 72 h” value (Doxorubicin) was > 1000 nM, the “IC50, cell viability 72 h” value (AZD5153) was > 1000 nM and the “IC50, cell viability 72 h” value (Lapatinib) was > 10 µM. For the same cell line, the “IC50, cell viability 72 h” value (AZD8186) was > 10 µM, the “IC50, cell viability 72 h” value (Crizotinib) was > 10 µM and the “IC50, cell viability 72 h” value (Savolitinib) was > 1000 nM. The “IC50, cell viability 72 h” value (AZD6738) was > 10 µM, the “IC50, cell viability 72 h” value (AZD5991) was > 1000 nM and the “IC50, cell viability 72 h” value (AZD7648) was > 10 µM. The “IC50, cell viability 72 h” value (Taselisib) was > 10 µM, the “IC50, cell viability 72 h” value (Selumetinib) was > 10 µM and the “IC50, cell viability 72 h” value (SRA737) was > 10 µM. The “IC50, cell viability 72 h” value (MK-2206) was > 10 µM, the “IC50, cell viability 72 h” value (Gemcitabine) was > 300 nM and the “IC50, cell viability 72 h” value [1] was > 5 µM. The “IC50, cell viability 72 h” value (Olaparib) was > 10 µM and the “IC50, cell viability 72 h” value (5-Fluorouracil) was > 20 µM.
For TGBC1TKB (Biliary Tract Carcinoma), the “IC50, cell viability 72 h” value (Carboplatin) was > 10 µM, the “IC50, cell viability 72 h” value (AZD5363) was > 10 µM and the “IC50, cell viability 72 h” value (AZD1775) was > 3000 nM. The “IC50, cell viability 72 h” value (Trametinib) was > 1000 nM, the “IC50, cell viability 72 h” value (Paclitaxel) was 969 nM and the “IC50, cell viability 72 h” value (Palbociclib) was > 10 µM. The “IC50, cell viability 72 h” value (AZD1390) was > 300 nM, the “IC50, cell viability 72 h” value (Venetoclax) was > 1000 nM and the “IC50, cell viability 72 h” value (Dasatinib) was > 2000 nM. The “IC50, cell viability 72 h” value (SG3199) was > 1 nM, the “IC50, cell viability 72 h” value (AZD2811) was > 1000 nM and the “IC50, cell viability 72 h” value (SN-38) was > 300 nM. For the same cell line, the “IC50, cell viability 72 h” value (AZD0156) was > 3000 nM, the “IC50, cell viability 72 h” value (AZD4320) was > 1000 nM and the “IC50, cell viability 72 h” value (Alisertib) was > 10 µM. The “IC50, cell viability 72 h” value (Etoposide) was > 10 µM, the “IC50, cell viability 72 h” value (Gefitinib) was > 10 µM and the “IC50, cell viability 72 h” value (Prexasertib) was > 1000 nM. The “IC50, cell viability 72 h” value (Doxorubicin) was > 1000 nM, the “IC50, cell viability 72 h” value (AZD5153) was > 1000 nM and the “IC50, cell viability 72 h” value (Lapatinib) was > 10 µM. The “IC50, cell viability 72 h” value (AZD8186) was > 10 µM, the “IC50, cell viability 72 h” value (Crizotinib) was > 10 µM and the “IC50, cell viability 72 h” value (Savolitinib) was > 1000 nM. The “IC50, cell viability 72 h” value (AZD6738) was > 10 µM, the “IC50, cell viability 72 h” value (AZD5991) was > 1000 nM and the “IC50, cell viability 72 h” value (AZD7648) was > 10 µM. The “IC50, cell viability 72 h” value (Taselisib) was > 10 µM, the “IC50, cell viability 72 h” value (Selumetinib) was > 10 µM and the “IC50, cell viability 72 h” value (SRA737) was > 10 µM. The “IC50, cell viability 72 h” value (MK-2206) was > 10 µM, the “IC50, cell viability 72 h” value (Gemcitabine) was > 300 nM and the “IC50, cell viability 72 h” value [1] was > 5 µM. For the same cell line, the “IC50, cell viability 72 h” value (Olaparib) was > 10 µM and the “IC50, cell viability 72 h” value (5-Fluorouracil) was > 20 µM.

Reference: the supplement of paper PMC11061612
